The results in this text go back to PubChem BioAssay (NCI).

Values joined by “and” are separate entries in the source; they are usually repeats but may differ in a detail not shown here. Equal values may be shown once.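 Dose response: 5 concentrations. Exposure: 48 h. Format: 96-well plates. Endpoint: linear interpolation; highest concentration if not reached. At the GI50, growth is halved. Definition used: TGI = concentration required for complete inhibition of growth.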

Common to all, as to test: NCI-60 cell line screen, 48 h
The test system of assay [1] is KM12 colon.
For assay [2], the system named is LOX IMVI melanoma.
Assay [3] concerns MALME-3M melanoma.
For assay [4], the system named is NCI-H522 lung.
In assay [5] the test system is OVCAR-3 ovarian.
In assay [6] the test system is SNB-75 CNS.
Assay [7] deals with T-47D breast.
Assay [8] deals with UACC-257 melanoma.
In assay [9] the test system is UACC-62 melanoma.
Assay [10] has as its system UO-31 renal.

Turning to `CC1(C)CCc2c(c(N=Nc3ccccc3F)c3ccccc3c2O)O1`, the GI50 is 23 µM in [1]; 20.9 µM in [2]; 34.5 µM in assay [3]; 38.6 µM in [4]; 20.5 µM in assay [5]; 20.4 µM in assay [6]. Further, the GI50 is 36.9 µM in assay [7], more than 100 µM in assay [8], more than 100 µM in [9] and 54.7 µM in [10]. The TGI is 65.1 µM in assay [1]; 40.9 µM in assay [2]; more than 100 µM in assay [3]; more than 100 µM in assay [4]; 51.2 µM in [5]; 53.3 µM in assay [6]. Also, the TGI in assay [7], in assay [8], in assay [9] and in [10] was more than 100 µM in each case.

As for `CC1OC(CC(=O)O)Cc2c1c(O)c1c(O)cc(-c3cc(=O)c4c(=O)c5c(c(=O)c=4c3=O)CC(CC(=O)O)OC5C)c(O)c1c2O` (configuration not stated), the GI50 is 32.5 µM in assay [1]; 14.2 µM in assay [3]; 17.8 µM in assay [4]; 37 µM in [5]; 19.4 µM in assay [6]; 30 µM in assay [7]. The GI50 was 21.8 µM in assay [8], 48.9 µM in [9] and 30.3 µM in [10]. The TGI in [1] is more than 100 µM; in assay [2] it was 36.5 µM; in assay [3], 29.2 µM and 38.5 µM; in assay [4], 18.9 µM and 64.7 µM; in [5], more than 58.6 µM; in [6], > 100 µM and 57.1 µM. In addition, the TGI is 26.9 µM and 66.9 µM in [8]; 17.7 µM in assay [9]; more than 64.5 µM in assay [10].

In the case of `COc1cc2c(/C=C3/C(=O)Nc4ccc(O)cc43)c(Cl)n(Cc3cc(OC)c(OC)c(OC)c3)c2cc1C`, the GI50 was 1.63 µM in assay [1]; 2.05 µM in assay [2]; 0.494 µM in assay [3]; 0.633 µM in assay [4]; 1.32 µM in [5]; 1.61 µM in assay [6]. For the same compound, the GI50 is 5.55 µM in assay [7], 3.43 µM in assay [8], 1.58 µM in assay [9] and 3.25 µM in assay [10]. Further, the TGI in [1] is more than 30.5 µM; in assay [2], 16.3 µM; in [3], 3.91 µM; in [4], 4.45 µM; in [5], more than 20.8 µM; in assay [6] it was more than 59.8 µM. For the same compound, the TGI in [7] is more than 70.8 µM; in assay [8] it was more than 47.6 µM; in assay [9], 8.56 µM; in [10] it was more than 74.4 µM.

`COc1ccc(CNCCCN2C(=O)c3ccc4c5c(ccc(c35)C2=O)C(=O)N(CCCNCc2ccc(OC)c(OC)c2OC)C4=O)c(OC)c1OC`: the GI50 in assay [1] was 0.0792 µM; in assay [2], 0.0795 µM; in assay [3] it was 0.0765 µM; in [4] it was 0.0804 µM; in assay [5], 0.0888 µM; in [6], 0.139 µM. Also, the GI50 in assay [7] is 0.0983 µM; in assay [8] it was 0.0921 µM; in assay [9], 0.093 µM; in [10], 0.585 µM. Besides, the TGI is 0.168 µM in assay [1]; 0.155 µM in assay [2]; 0.151 µM in [3]; 0.163 µM in assay [4]; 0.23 µM in assay [5]; 0.442 µM in [6]. Besides, the TGI in assay [7] amounted to 0.213 µM; in [8], 0.167 µM; in assay [9], 0.182 µM; in assay [10], 1.22 µM.

On to `Cc1c[nH]c(=O)n(Cc2nnc(CCC(=O)c3nc4ccccc4[nH]3)o2)c1=O`, for which the GI50 was 0.414 µM in assay [1]; 0.439 µM in assay [2]; 1.14 µM in assay [3]; 0.281 µM in [4]; 0.315 µM in assay [5]; 0.0558 µM in [6]. The GI50 in [7] was 1.03 µM; in [8], 0.787 µM; in assay [9], 0.721 µM; in assay [10], 2.4 µM. The TGI in assay [1] was more than 33.1 µM; in assay [2], more than 100 µM; in [3] it was more than 100 µM; in assay [4], 1.4 µM; in [5] it was 1.26 µM; in [6], 0.806 µM. The TGI in [7] is more than 100 µM; in [8] it was more than 100 µM; in [9], more than 88.1 µM; in [10] it was more than 100 µM.

Take `CC(=O)Nc1ccc(OC(C)=O)cc1`: the GI50 in assay [1] is less than 0.01 µM; in assay [2], less than 0.01 µM; in assay [3], 0.668 µM; in assay [4], less than 0.01 µM; in [5] it was less than 0.01 µM; in assay [6], less than 0.01 µM. For the same compound, the GI50 was 5.74 µM in assay [7], less than 0.01 µM in [9] and 0.252 µM in [10]. Besides, the TGI is 12.1 µM in [1]; 4.14 µM in assay [2]; 24.5 µM in assay [3]; less than 0.01 µM in assay [4]; less than 0.0134 µM in [5]; 28.6 µM in assay [6]. Further, the TGI in [7] is more than 100 µM; in assay [8], 29.7 µM; in assay [9] it was 12.7 µM; in [10] it was 26 µM.

On to `Cc1ccc2[nH]c(O)c(N=Nc3ccccc3[N+](=O)[O-])c2c1`, for which the TGI is more than 40.3 µM in assay [1]; more than 100 µM in assay [2]; 7.9 µM in assay [3]; 5.29 µM in assay [4]; 99.6 µM in assay [5]; more than 50 µM in assay [6]. In addition, the TGI in assay [7] was 14 µM; in assay [8], more than 100 µM; in assay [9] it was more than 100 µM; in assay [10] it was 9.3 µM.

Turning to `C#CCOC(=O)/C=C/C(=O)Oc1ccc2c(C)cc(=O)oc2c1`, the GI50 in assay [1], in assay [2], in [3], in assay [4], in assay [5] and in assay [6] was more than 100 µM in each case. Also, the GI50 in assay [7], in assay [8], in assay [9] and in assay [10] was more than 100 µM in each case. Moreover, the TGI in assay [1], in [2], in assay [3], in assay [4], in assay [5] and in assay [6] was more than 100 µM in each case. For the same compound, the TGI in [7], in [8], in [9] and in assay [10] was more than 100 µM in each case.
